Reference: patent US6787564B2, “Optically active clausenamides, process of the preparation thereof, pharmaceutical composition containing the same and their medical use” (Institute of Materia Medica, Chinese Academy of Medical …, priority 2002, dated 2004)

Columns and labels:
[1] = test system: calpain; assay: calpain activity in the cortical and hippocampal tissue; type: in vivo, rats; details: without HFS, Nimodipine 2 nmol, mean ± S.D., n = 5; for calpain activity, Cortical tissue: control 1.5 ± 0.2; for calpain activity, Hippocampal tissue: control 1.7 ± 0.5
From the text: The rats were anaesthetized with urethane carbonate.

[2] = test system: calcineurin; assay: calcineurin activity in the cortical and hippocampal tissue; details: without HFS; Nimodipine 2 nmol; mean ± S.D., n = 5; control 7.8 ± 0.6
From the text: The rats were anaesthetized with urethane carbonate. The recording and stimulating electrodes were made from Teflon coated stainless steel wires. The bipolar stimulating electrode was sterotaxically placed in the entorhinal cortex to stimulate the perforant path, and the evoked potential was extracellular recorded from the dentate gyrus granule cell layer of ipsilateral. The population spike (PS) is served as an indication of granule cell's excitation. Long term potentiation (LTP) was induced by a 200 Hz high frequency stimulation 5×single square wave pulses of 0.2 ms duration. The drug or vehicle (DMSO) were injected into lateral cerebral ventricle in a 5 μl volume over a 5 min period via a Hamilton syringe.

[3] = test system: animals with anisodine-induced memory impairment; assay: step-through test, memory impairment induced by anisodine; type: in vivo
From the text: (§1) This invention used one trial avoidance task—step-down and step-through tests and water maze to compare the improving memorial effects of (±), (−) clausenamide. The drugs were given orally once to animals before experiment in step-down and step-through tests. The water maze test lasted for 5 days in succession. The results were expressed as latency and errors number.

[4] = test system: animals with anisodine-induced memory impairment; assay: memory impairment induced by anisodine in water maze test; type: in vivo
From the text: as §1

[5] = test system: β-AP (25-35)-treated rats; assay: one trial passive avoidance of β-AP (25-35)-treated rats; type: in vivo
[6] = test system: animals; assay: nootropic action overall: step-down, step-through and water maze tests; type: in vivo; details: oral; Tab.4 to Tab.7
Method: This invention used one trial avoidance task—step-down and step-through tests and water maze to compare the improving memorial effects of (±), (−) clausenamide.
The drugs were given orally once to animals before experiment in step-down and step-through tests. The water maze test lasted for 5 days in succession. The results were expressed as latency and errors number.
The effective dose of piracetam was 500 mg.kg^−1.

[7] = test system: animals; assay: memory in water maze test; type: in vivo
From the text: as §1

[8] = test system: animals with anisodine-induced memory impairment; assay: step-down test, memory impairment induced by anisodine; type: in vivo; details: 500 mg/kg oral once
From the text: as §1

[9] = test system: A β 25-35 treated rats; assay: Morris water maze, A β 25-35 induced impairment of memory; type: in vivo; details: for initial heading angle on the 3th day (in words): (−),(+) clausenamide 8 and 40 mg.kg^−1, piracetam 400 mg·kg^−1; for initial heading angle on the 3th day (in words) / latency for finding the platform, 3th to 5th day: vs A β group; for latency for finding the platform, 3th to 5th day: (−),(+) clausenamide 8 and 40 mg·kg^−1, piracetam 400 mg.kg^−1
From the text: Pathological features of Alzheimer's disease (AD) include extensive neuronal loss and the presence of numerous neurofibrillary tangles and senile plaques in the brain. The senile plaques contain amyloid fibrils derived from a 39-43 amino acids peptide referred to as β-amyloid or A β which can produce neurotoxicity. A β 25-35 poccesses the similar neurotoxicity and ability of self-aggregation as A β 1-42. Administrated aggregated A β 25-35 into rat's lateral cerebral ventricle induced memory impairment in Morris water maze.
With increasing of training days, the initial heading angle became small. On the 3th day, the initial heading angle of A β group was larger than control. […] (see Tab.3)
There are four strategies for finding platform in Morris water maze: random, circle, taxis and line. In the beginning of training the search strategies for finding target is mainly circle and random, with the increasing of training, the percentage of the two strategies declined gradually, Beginning from the 3th day, declining speed in control and (−) clausenamide group was faster than A β,(+) clausenamide and piracetam groups.

[10] = test system: dentate gyrus of hippocampus; assay: induction of LTP in hippocampal of rat (population spike amplitude); type: in vivo, SD rats; details: I.C.V.; means ± SD
From the text: Adult male SD rats were anesthetized to maintain a surgical level. A stainless steel cannula-recording electrode was placed in DG (dentate gyrus) of hippocampus using a stereotaxic instrument. The combination of cannula-recording electrode was constructed by insulating the outside of the cannula, except at the tip and top. In the top noninsulated area, a stainless steel wire was wrapped around the cannula and connected to the amplifier via an amphenol connector. The four pairs optically active clausenamides shown in table 9 was delivered by I.C.V. Responses were evoked via direct stimulation of the performant path (PP) using a stainless steel bipolar stimulating electrode. Constant current stimulation provided by a stimulator was delivered to the stimulating electrode through a Stimulus Isolation Unit.
The stimulating electrode was adjusted until a characteristic EPSP was observed under constant current. The evoked responses were amplified on a series alternating current preamplifier, using a microcomputer, and then stored for off-line analysis using DataWave software. The current intensity that elicited a 50% maximal response in each animal was determined and used for all subsequent stimulation. To measure treatment effects, responses were evoked once every 30 sec throughout the entire experiment, and population spike amplitude(PSA) were calculated.

[11] = test system: dentate gyrus granule cells; assay: basal synaptic transmission / LTP in dentate gyrus of hippocampus in anesthetized rats (population spike amplitude); type: in vivo; details: for decrease of PS amplitude compared with that of (−) clausenamide: 60 min
From the text: Drugs or vehicle injection were delivered via cannula in the lateral cerebral ventricle at final concentration of 2×10^−6 mol/L. The population spike (PS) amplitude was employed as an indication of the level of excitation of the granular cell population in the dentate gyrus. To obtain this measurement, an evoked response was generated in the dentate gyrus granule cell layer by stimulating the pp at low freguency (0.033 Hz) with. single square wave pulses of 0.15 ms duration The LTP formation must accord the following creteria: The PS amplitude increased is over 30% and this high PS amplitude can persist for 40 min.

[12] = test system: rats; assay: mossy fiber sprouting in fascia dentata and hippocampal CA3 region; type: in vivo; details: 8 and 40 mg·kg^−1 orally daily for 10 days; adult rat
From the text: 2. […] This is morphological basis for levoclausenamide to incnease synaptic transmission (see FIGS. 1 and 2).

[13] = test system: BDNF; assay: BDNF protein expression in cortical neurons and hippocampal pyramide cells; type: in vivo, rats; details: 8, 40 mg·kg^−1 orally daily for 10 days
[14] = β-AP-treated + drug 400 mg/kg, n = 8
[15] = β-AP-treated + drug 8 mg/kg, n = 9
[16] = β-AP-treated + drug 40 mg/kg, n = 9
[17] = anisodine + drug 10 mg/kg (Tab 7)
[18] = anisodine + drug 50 mg/kg (Tab 7)

## NC(CCCP(=O)(O)O)C(=O)O (stereo not shown) [AP5]
[1]
  calpain activity, Cortical tissue: 1.6 ± 0.4 ΔA595nm/hr/mg protein
  calpain activity, Hippocampal tissue: 1.6 ± 0.6 ΔA595nm/hr/mg protein
[2]
  calcineurin activity, Hippocampal tissue: 8.1 ± 0.7 (μmol Pi)/hr/μ g protein

## CN1[C@@H]2CC(OC(=O)[C@@](O)(CO)c3ccccc3)C[C@H]1[C@@H]1O[C@@H]12 (stereo partly shown) [Anisodine, reference compound]
[3]; anisodine 10 mg/kg alone, 0.9% Nacl 2.0 ± 3.8 (Tab 7)
  Error number: 14.1 ± 8.9
[3]; anisodine 10 mg/kg alone, 0.9% Nacl 152.1 ± 64.2, N = 10 (Tab 7)
  Latencies: 35.8 ± 76.4 s
[4]; anisodine group alone, 10 animals
  Errors number: 15.9 ± 11.3

## COCCOC(=O)C1=C(C)NC(C)=C(C(=O)OC(C)C)C1c1cccc([N+](=O)[O-])c1 (stereo not shown) [Nimodipine]
[1]
  calpain activity, Cortical tissue: 1.7 ± 0.3 ΔA595nm/hr/mg protein
  calpain activity, Hippocampal tissue: 1.8 ± 0.5 ΔA595nm/hr/mg protein
[2]
  calcineurin activity, Hippocampal tissue: 7.7 ± 0.8 (μmol Pi)/hr/μ g protein

## NC(=O)CN1CCCC1=O [Piracetam, 2-oxo-1 pyrolidine acetamide]
[3]; 500 mg/kg oral once, 0.9% Nacl + anisodine 24.4 ± 59
  Latencies, Step-through: 107 ± 110 s
[3]; 500 mg/kg oral once, N = 10, X ± SD, 0.9% Nacl + anisodine 12.7 ± 4.6
  Error number, Step-through: 4.1 ± 3.2
[5]; [14]
  Number of error, Acquisition: 1.6 ± 0.26
  Number of error, Training: 4.1 ± 1.14
[6]
  effective dose of piracetam (comparator): 500 mg/kg
[7]; 500 mg/kg, 0.9% Nacl 25.8 ± 18.4
  Lalencies reaching platform, 3rd day: 18.6 ± 9.9 s
[7]; 500 mg/kg, 0.9% Nacl 26.1 ± 38.4
  Lalencies reaching platform, 4th day: 16.7 ± 16.3 s
[7]; 500 mg/kg, N = 10, X ± S.D., 0.9% Nacl 32.4 ± 29.2
  Lalencies reaching platform, Second day: 32.2 ± 22.6 s
[4]; anisodine + drug 500 mg/kg
  Errors number: 23.5 ± 25.0
[8]; 0.9% Nacl + anisodine 0.9 ± 1.0
  Error number, Step-down: 0.7 ± 0.5
[8]; 0.9% Nacl + anisodine 184 ± 105
  Latencies, Step-down: 180 ± 110 s
[9]
  initial heading angle on the 3th day (in words): showed no improving effects
  latency for finding the platform, 3th to 5th day: showed no effect
[9]; A β 25-35 + drug at 400 mg/kg
  initial heading angle, training day 1: 92.5 ± 28.9
  initial heading angle, training day 2: 87.3 ± 24.2
  initial heading angle, training day 3: 74.6 ± 23.7
  initial heading angle, training day 4: 62.5 ± 19.6
  initial heading angle, training day 5: 44.5 ± 14.3

## (+) clausenamide [reference compound]
[10]
  PSA (%), 15 min: 90.6 ± 0.3%
  PSA (%), 30 min: 110.1 ± 13.1%
  PSA (%), 60 min: 106.4 ± 4.1%
[11]; icv, 2×10^−6 mol/L
  PS % at 15′, in comparison with control (vehicle) group: −2.7%
  PS % at 30′, in comparison with before drug: −5.9%
  PS % at 30′, in comparison with control (vehicle) group: −12.0%
  PS % at 45′, in comparison with before drug: −12.9%
  PS % at 45′, in comparison with control (vehicle) group: −20.0%
  PS % at 60′, in comparison with before drug: −14.9%
  PS % at 60′, in comparison with control (vehicle) group: −23.2%
[11]; icv, 2×10^−6 mol/L, control 108 ± 7
  PS amplitude 30′ after drug: 95 ± 9
[11]; icv, 2×10^−6 mol/L, control 110 ± 10
  PS amplitude 45′ after drug: 88 ± 15
[11]; icv, 2×10^−6 mol/L, control 112 ± 7
  PS amplitude 60′ after drug: 86 ± 18
[11]; icv, final concentration 2×10^−6 mol/L, control 110 ± 9
  PS amplitude 15′ after drug: 107 ± 8
[5]; [15]
  Number of error, Acquisition: 0.8 ± 0.38
  Number of error, Training: 3.3 ± 0.42
[5]; [16]
  Number of error, Acquisition: 1.1 ± 0.19
  Number of error, Training: 3.9 ± 2.3
[12]
  mossy fiber sprouting in the fascia dentate and stratum lucidum: no significant effect
[13]
  BDNF protein expression in the cortical neurons and pyramide cells in the hippocampus: slightly increasing effect only at a dose of 40 mg·kg^−1
[9]
  initial heading angle on the 3th day (in words): showed no improving effects
  latency for finding the platform, 3th to 5th day: showed no effect
[9]; A β 25-35 + drug at 8 mg/kg
  initial heading angle, training day 1: 99.4 ± 31.7
  initial heading angle, training day 2: 93.5 ± 29.6
  initial heading angle, training day 3: 82.1 ± 26.7
  initial heading angle, training day 4: 70.2 ± 21.5
  initial heading angle, training day 5: 59.2 ± 18.3
[9]; A β 25-35 + drug at 40 mg/kg
  initial heading angle, training day 1: 112.4 ± 32.8
  initial heading angle, training day 2: 102.5 ± 28.7
  initial heading angle, training day 3: 84.2 ± 22.5
  initial heading angle, training day 4: 83.1 ± 26.5
  initial heading angle, training day 5: 65.4 ± 20.8

## A β 25-35: β-amyloid fragment with neurotoxicity and self-aggregation like A β 1-42; icv injection induces memory impairment (GSNKGAIIGLM; Amyloid-beta protein 42; UniProt P05067 696-706, looked up, fragment)
[5]; β-AP-treated + vehicle, n = 8, sham-operated + vehicle 0.3 ± 0.12, MEAN ± S.E.M.
  Number of error, Acquisition: 0.9 ± 0.33
[5]; β-AP-treated + vehicle, n = 8, sham-operated + vehicle 1.6 ± 0.42, MEAN ± S.E.M.
  Number of error, Training: 2.6 ± 0.71
[9]; A β 25-35 alone, control 15.4 ± 20.4
  initial heading angle, training day 5: 46.7 ± 19.4
[9]; A β 25-35 alone, control 29.6 ± 10.7
  initial heading angle, training day 4: 60.6 ± 23.8
[9]; A β 25-35 alone, control 47.3 ± 15.1
  initial heading angle, training day 3: 73.6 ± 20.3
[9]; A β 25-35 alone, control 76.8 ± 29.8
  initial heading angle, training day 2: 98.7 ± 30.4
[9]; A β 25-35 alone, control 93.6 ± 34.6
  initial heading angle, training day 1: 106.3 ± 29.8

## Racemic clausenamide [(±) clausenamide, reference compound]
[3]; [17]
  Error number: 11.3 ± 21.5
  Latencies: 43.0 ± 65.8 s
[3]; [18]
  Error number: 14.4 ± 12.3
  Latencies: 79.9 ± 63.6 s
[11]; 2 μM to 10 μM
  effect on PS amplitude (in words): inhibitory effect on PS amplitude
[11]; first of the two concentrations (2 μM)
  decrease of PS amplitude compared with that of (−) clausenamide: 44%
[11]; second of the two concentrations (10 μM)
  decrease of PS amplitude compared with that of (−) clausenamide: 55%
[11]; (−) at 2×10^−6 mol/L, (±) up to 5 times that
  LTP formation (PS amplitude increase over 30% persisting 40 min): could not induce LTP
[7]; 10 mg/kg
  Lalencies reaching platform, 3rd day: 23.9 ± 22.6 s
  Lalencies reaching platform, 4th day: 17.1 ± 14.3 s
  Lalencies reaching platform, Second day: 35.8 ± 35.2 s
[7]; 50 mg/kg
  Lalencies reaching platform, 3rd day: 25.7 ± 13.8 s
  Lalencies reaching platform, 4th day: 14.6 ± 10.4 s
  Lalencies reaching platform, Second day: 36.6 ± 37.0 s
[4]; anisodine + drug 10 mg/kg
  Errors number: 16.6 ± 23.9
[4]; anisodine + drug 100 mg/kg
  Errors number: 9.11 ± 3.8
